US10195201B2, “Heteroaryl-pyrimidinone compounds as PDE2 inhibitors” (Merck Sharp & Dohme Corp., priority 2015, dated 2019)
Read-outs that look alike come from different tables or passages of the source.

Experiments:
[1] = biological target: human PDE2A1 (Homo sapiens (Human), UniProt O00408); assay: PDE2 fluorescence polarization (IMAP FP) inhibition assay, human enzyme; type: biochemical
Description: (§1) The activity of the compounds in accordance with the present invention as PDE2 inhibitors may be readily determined using a fluorescence polarization (FP) methodology (Huang, W., et al., J. Biomol Screen, 2002, 7: 215).
Selectivity for PDE2, as compared to other PDE families, was assessed using the IMAPR technology. Human PDE10A2 enzyme was prepared from cytosolic fractions of transiently transfected HEK cells. All other PDE's were GST Tag human enzyme expressed in insect cells and were obtained from BPS Bioscience (San Diego, Calif.): PDE1A (Cat#60010), human PDE2A1(Cat#60020), PDE3A (Cat#60030), PDE4A1A (Cat#60040), PDE5A1 (Cat#60050), PDE6C (Cat#60060), PDE7A (Cat#60070), PDE8A1 (Cat#60080), PDE9A2 (Cat#60090), PDE11A4 (Cat#60110).
Assays for PDE 1 through 11 were performed in parallel at room temperature in 384-well microtiter plates with an incubation volume of 20.2 μL. Solutions of test compounds were prepared in DMSO and serially diluted with DMSO to yield 30 μL of each of ten solutions differing by 3-fold in concentration, at 32 serial dilutions per plate. […] A Labcyte POD 810 (Labcyte, Sunnyvale, Calif.) was used to dispense 200 nL from each well of the titration plate to make eleven copies of the assay plate for each titration, one copy for each PDE enzyme. A solution of each enzyme (dilution from aliquots, sufficient to produce 20% substrate conversion) and a separate solution of FAM-labeled cAMP or FAM-labeled cGMP from Molecular Devices (Sunnyvale, Calif., product # R7506 or cGMP#R7508), at a final concentration of 50 nM were made in the assay buffer (10 mM Tris HCl, pH 7.2, 10 mM MgCl2, 0.05% NaN3 0.01% Tween-20, and 1 mM DTT). Note that the substrate for PDE2 is 50 nM FAM cAMP containing 1000 nM of cGMP. The enzyme and the substrate were then added to the assay plates in two consecutive additions of 10 μL and then shaken to mix. The reaction was allowed to proceed at room temperature for 60 minutes. A binding solution was then made from the kit components, comprised of 80% Solution A, 20% Solution B and binding reagent at a volume of 1/600 the total binding solution. The enzymatic reaction was stopped by addition of 60 μL of the binding solution to each well of the assay plate. The plates were sealed and shaken for 10 seconds. The plates were incubated at room temperature for one hour, then the parallel and perpendicular fluorescence was measured using a Tecan Genios Pro plate reader (Tecan, Switzerland). The apparent inhibition constants for the compounds against all 11 PDE's was determined from the parallel and perpendicular fluorescent readings as described for PDE10 FP assay using the following apparent KM values for each enzyme and substrate combination: PDE1A (FAM cGMP) 70 nM, human PDE2A1 (FAM cAMP) 10,000 nM, PDE3A (FAM cAMP) 50 nM, PDE4A1A (FAM cAMP) 1500 nM, PDE5A1 (FAM cGMP) 400 nM, PDE6C (FAM cGMP) 700 nM, PDE7A (FAM cAMP) 150 nM, PDE8A1 (FAM cAMP) 50 nM, PDE9A2 (FAM cGMP) 60 nM, […] (FAM cAMP) 150 nM, PDE11A4 (FAM cAMP) 1000 nM. The intrinsic PDE2 inhibitory activity of a compound which may be used in accordance with the present invention may be determined by these assays. […]

[2] = biological target: Rhesus PDE2A3 (Macaca mulatta, UniProt B3VTJ2); assay: PDE2 fluorescence polarization (IMAP FP) inhibition assay, rhesus enzyme; type: biochemical, rhesus macaque
Description: as §1
In a typical experiment the PDE2 inhibitory activity of the compounds of the present invention was determined in accordance with the following experimental method. Rhesus PDE2A3 was amplified from rhesus macaque brain cDNA (Biochain Institute, Hayward, Calif.) using primers based on human PDE2A sequence (accession NM_002599.3) where the forward primer containing a Kozak consensus was 5′-[…]-3′ and the reverse primer was 5′-[…]-3′. Amplification with Easy-A High-Fidelity PCR cloning enzyme (Stratagene, La Jolla, Calif.) was 95° C. for 2 minutes followed by thirty three cycles of 95° C. for 40 seconds, 52° C. for 30 seconds, and 72° C. for 2 minutes 48 seconds. Final extension was 72° C. for 7 minutes. The PCR product was TA cloned into pcDNA3.3-TOPO (Invitrogen, Carlsbad, Calif.) according to standard protocol. A consensus sequence was developed from multiple clones and then deposited into GenBank (EU812167). AD293 cells (Stratagene, La Jolla, Calif.) with 70-80% confluency were transiently transfected with rhesus PDE2A3/pcDNA3.3-TOPO using Lipofectamine 2000 according to manufacturer specifications (Invitrogen, Carlsbad, Calif.). Cells were harvested 48 hours post-transfection and lysed by sonication (setting 3, 10×5 sec pulses) in a buffer containing 20 mM HEPES pH 7.4, 1 mM EDTA and Complete Protease Inhibitor Cocktail Tablets (Roche, Indianapolis, Ind.). Lysate was collected by centrifugation at 75,000×g for 20 minutes at 4° C. and supernatant utilized for evaluation of PDE2 activity. The fluorescence polarization assay for cyclic nucleotide phosphodiesterases was performed using an IMAP® FP kit supplied by Molecular Devices, Sunnyvale, Calif. (product # R8139). […] Assays were performed at room temperature in 384-well microtiter plates with an incubation volume of 20.2 μL. Solutions of test compounds were prepared in DMSO and serially diluted with DMSO to yield 8 μL of each of 10 solutions differing by 3-fold in concentration, at 32 serial dilutions per plate. […] 0% of inhibition is determined by using DMSO (1% final concentrations).
A Labcyte Echo 555 (Labcyte, Sunnyvale, Calif.) is used to dispense 200 nL from each well of the titration plate to the 384 well assay plate. Ten microliters of a solution of enzyme (1/2000 final dilution from aliquots; sufficient to produce 20% substrate conversion) was added to the assay plate. Next 10 uL of a separate solution of the substrate FAM-labeled cAMP (50 nM final concentration product # R7506 from Molecular Devices) and the activator cGMP (1 uM final concentration), prepared in the assay buffer (10 mM Tris HCl, pH 7.2, 10 mM MgCl2, 0.05% NaN3 0.01% Tween-20, and 1 mM DTT) was added to the assay plate and shaken to mix. The reaction is allowed to proceed at room temperature for 60 minutes. A binding solution is then made from the kit components, comprised of 80% Solution A, 20% Solution B and binding reagent at a volume of 1/600 the total binding solution. The enzymatic reaction is stopped by addition of 60 μL of the binding solution to each well of the assay plates and the plates are sealed and shaken for 30 seconds. The plate was incubated at room temperature for at least one hour prior to determining the fluorescence polarization (FP). The parallel and perpendicular fluorescence of each well of the plate was measured using a Tecan Genios Pro plate reader (Tecan, Switzerland) or Perkin Elmer EnVision™ plate reader (Waltham, Mass.). Fluorescence polarization (mP) was calculated from the parallel (S) and perpendicular (P) fluorescence of each sample well and the analogous values for the median control well, containing only substrate (So and Po), using the following equation: Polarization (mP)=1000*(S/So−P/Po)/(S/So+P/Po).

[3] = LabA, read-out: hPDE2 Ki (nM) LabA
[4] = LabA, read-out: rhPDE2 Ki (nM) LabA
[5] = LabB, read-out: rhPDE2 Ki (nM) LabB

Sequence of human PDE2A1 (O00408 other isoform, or with tags, fused parts or gaps): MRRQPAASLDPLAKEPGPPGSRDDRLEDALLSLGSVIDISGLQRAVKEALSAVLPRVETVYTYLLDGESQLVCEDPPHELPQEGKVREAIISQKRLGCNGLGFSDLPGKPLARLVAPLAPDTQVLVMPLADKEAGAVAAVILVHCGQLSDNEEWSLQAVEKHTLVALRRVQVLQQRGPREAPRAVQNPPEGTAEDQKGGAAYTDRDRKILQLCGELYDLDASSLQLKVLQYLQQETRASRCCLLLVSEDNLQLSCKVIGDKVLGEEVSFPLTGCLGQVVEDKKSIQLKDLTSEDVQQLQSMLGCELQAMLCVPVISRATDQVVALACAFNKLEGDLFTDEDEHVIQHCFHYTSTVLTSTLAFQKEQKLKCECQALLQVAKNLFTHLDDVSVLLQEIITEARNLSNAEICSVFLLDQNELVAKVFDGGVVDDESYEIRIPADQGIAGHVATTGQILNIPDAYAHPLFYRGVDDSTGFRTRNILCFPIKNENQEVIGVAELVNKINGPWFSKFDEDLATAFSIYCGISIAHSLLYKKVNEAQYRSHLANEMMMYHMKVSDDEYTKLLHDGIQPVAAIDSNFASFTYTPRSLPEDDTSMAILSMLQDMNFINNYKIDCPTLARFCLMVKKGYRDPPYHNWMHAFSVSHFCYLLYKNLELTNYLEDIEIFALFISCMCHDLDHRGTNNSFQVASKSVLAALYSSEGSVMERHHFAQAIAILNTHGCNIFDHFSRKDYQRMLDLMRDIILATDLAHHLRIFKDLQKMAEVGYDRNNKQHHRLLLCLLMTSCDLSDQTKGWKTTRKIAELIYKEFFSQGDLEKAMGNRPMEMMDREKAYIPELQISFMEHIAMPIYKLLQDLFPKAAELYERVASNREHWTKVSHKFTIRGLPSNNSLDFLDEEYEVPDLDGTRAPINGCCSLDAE
Sequence of Rhesus PDE2A3 (B3VTJ2 1-941): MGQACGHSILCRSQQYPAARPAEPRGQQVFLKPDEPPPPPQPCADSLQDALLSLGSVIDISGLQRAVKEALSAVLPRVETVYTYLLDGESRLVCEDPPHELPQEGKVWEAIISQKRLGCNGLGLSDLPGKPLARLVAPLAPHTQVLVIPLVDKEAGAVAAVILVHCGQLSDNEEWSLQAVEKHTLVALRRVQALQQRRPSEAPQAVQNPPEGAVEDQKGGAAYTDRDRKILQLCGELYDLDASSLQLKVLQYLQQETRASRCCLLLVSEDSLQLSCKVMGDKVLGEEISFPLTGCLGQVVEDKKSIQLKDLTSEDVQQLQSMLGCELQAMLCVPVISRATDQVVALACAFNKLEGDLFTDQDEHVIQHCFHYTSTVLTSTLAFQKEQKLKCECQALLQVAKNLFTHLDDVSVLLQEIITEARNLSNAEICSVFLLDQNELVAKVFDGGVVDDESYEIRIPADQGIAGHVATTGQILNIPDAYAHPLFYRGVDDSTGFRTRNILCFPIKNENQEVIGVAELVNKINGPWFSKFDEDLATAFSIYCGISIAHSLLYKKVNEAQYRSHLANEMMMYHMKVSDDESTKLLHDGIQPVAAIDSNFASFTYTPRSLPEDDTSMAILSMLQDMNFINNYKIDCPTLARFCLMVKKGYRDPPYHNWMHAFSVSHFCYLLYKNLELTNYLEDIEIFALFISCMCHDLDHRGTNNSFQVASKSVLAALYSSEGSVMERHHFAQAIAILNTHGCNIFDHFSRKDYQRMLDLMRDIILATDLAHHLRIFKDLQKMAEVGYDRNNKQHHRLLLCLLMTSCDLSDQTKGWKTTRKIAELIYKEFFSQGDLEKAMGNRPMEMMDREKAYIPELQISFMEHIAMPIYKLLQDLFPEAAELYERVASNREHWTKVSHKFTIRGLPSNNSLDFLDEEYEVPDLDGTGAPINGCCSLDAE

Row | SMILES | Ki [1, 3] [nM] | Ki [2, 4] [nM] | Ki ([1]; LabB, read-out: hPDE2 Ki (nM) LabB) [nM] | Ki [2, 5] [nM]
1 | Cc1nc(-c2cn(C(C)c3ccc(C(F)(F)F)cc3)cn2)cc(=O)[nH]1 (single isomer, unassigned) [Example 17, (R)- or (S)-2-methyl-6-(1-(1-(4-(trifluoro-methyl)phenyl)ethyl)-1H-imidazol-4-yl) pyrimidin-4 (3H)-one] | 76 | 106 |  | 
2 | COc1ccc(Cc2nc(-c3cn(C(C)c4ccc(C(F)(F)F)cc4F)cn3)cc(=O)[nH]2)cc1OC (single isomer, unassigned) [Example 18, (R)- or (S)-2-(3,4-dimethoxy-benzyl)-6-(1-(1-(2-fluoro-4-(trifluoromethyl)phenyl)ethyl)-1H-imidazol-4-yl)pyrimidin-4(3H)-one] | 1.4 | 2.3 |  | 
3 | COc1ccc(Cc2nc(-c3cn(C(C)c4ccc(C(F)(F)F)cc4F)cn3)cc(=O)[nH]2)cc1OC (single isomer, unassigned) [Example 19, (R)- or (S)-2-(3,4-dimethoxy-benzyl)-6-(1-(1-(2-fluoro-4-(trifluoromethyl)phenyl)ethyl)-1H-imidazol-4-yl)pyrimidin-4(3H)-one] |  | 0.2 | 0.4 | 0.4
4 | Cc1nc(-c2ncc(C(C)c3ccc(C(F)(F)F)cc3)s2)cc(=O)[nH]1 (centres unmarked) [Example 1, 2-Methyl-6-(5-(1-(4-(trifluoromethyl)phenyl)ethyl)thiazol-2-yl)pyrimidin-4(3H)-one] | 60 | 96 |  | 481
5 | Cc1nc(-c2ncc(C(C)c3ccc(C(F)(F)F)cc3)o2)cc(=O)[nH]1 (centres unmarked) [Example 8, 2-Methyl-6-(5-(1-(4-(trifluoromethyl)phenyl)ethyl)oxazol-2-yl)pyrimidin-4(3H)-one] | 403 | 352 |  | 
6 | Cc1nc(-c2cc(=O)[nH]c(C)n2)cc(C(C)c2ccc(C(F)(F)F)cc2)n1 (centres unmarked) [Example 48, 2,2′-dimethyl-6′-(1-(4-(trifluoromethyl)phenyl)ethyl)-[4,4′-bipyrimidin]-6(1H)-one] | 312 | 516 |  | 
